Data: US4219668A, “4-Hydroxy,4-biphenylbutyric acid” (American Cyanamid Company, priority 1979, dated 1980)

How the values were obtained:
[1] = tested on: aggregation of thromocytes; details: British Pat. No. 1,390,091; cited from earlier work
[2] = British Pat. No. 1,390,091; cited from earlier work
[3] = tested on: adjuvant induced arthritis (Freund's adjuvant); assay: Chronic inflammation, adjuvant induced arthritis; type: in vivo, Royal Hart, Wistar strain rats; details: 50 mg./kg. oral once daily, days 0 through 13
Method: In a second test the activity against chronic inflammation in adjuvant induced arthritis was determined. Groups of 3 Royal Hart, Wistar strain rats, weighing 200±10 g. each were injected intradermally in the right hind paw with Freund's adjuvant (dried human tubercle bacilli in a mineral oil vehicle) at a dose of 2 mg./kg. of body weight. Test compounds were administered orally in a 1.5% starch vehicle at 50 mg./kg. of body weight once daily on days 0 through 13 post challenge. Control rats were treated in a similar manner, but given only starch vehicle. On the 14th day post challenge the diameter of the injected paw (primary lesion) was measured by micrometer caliper. The volume of inflamed paws was estimated from these measurements and the results are expressed as percent inhibition of swelling as compared to controls. At the same time, the other inflamed sites, such as ears, paws and tail (secondary lesions) were observed and each rat was graded as to the degree of inflammation and swelling present. The grading is based on a scale of 0 to 24, where 0 represents a complete absence of induced arthritic nodules and 24 represents the maximum degree of inflammation. The mean grade for each treated group is calculated and the effects of each compound are expressed as percent inhibition of the control grade. Table IV records the results of this test on a typical compound of this invention.

[4] = tested on: respiratory depression associated with platelet aggregation and thrombosis induced by arachidonic acid; assay: Inhibition of arachidonic acid-induced respiratory depression in mice; type: in vivo; details: arachidonic acid 50 mg./kg. i.v. two hours later
Method: In a second test the in vivo activity is determined in mice. […] Mice were treated orally by gastric lavage with the test compounds in a starch suspension at various dosage levels. Two hours later a challenge dose of arachidonic acid was given to the mice intravenously at a concentration of 50 mg./kg. The period of respiratory distress for each animal was recorded in seconds by observation. The results of a typical compound of this invention appear in Table II in terms of percent inhibition in comparison with controls.

[5] = tested on: platelet aggregation (collagen-induced, platelet rich plasma); assay: Inhibition of collagen-induced platelet aggregation ex vivo after oral administration to male rats; type: in vivo; details: rats bled after one to 2 hours, collagen 500 mcg./ml.
Method: The compounds were administered orally to male rats in various concentrations. After one to 2 hours the rats were bled and platelet rich plasma obtained. Collagen was added at a concentration of 500 mcg./ml. to induce platelet aggregation and comparisons were made between control and treated samples. The percent inhibition of aggregation produced by the test compound was recorded.

[6] = tested on: carrageenin-induced edema; assay: Acute anti-inflammatory activity, carrageenin-induced paw edema; type: in vivo, Royal Hart, Wistar strain rats; details: 250 mg./kg. by gavage; 5 hours after drug, 4 hours after carrageenin; edema of control animals/edema of treated animals; >1.41 considered active
Method: In determining the acute anti-inflammatory activity, Royal Hart, Wistar strain rats ranging in weight from 80 to 90 grams were used. The rats were fasted overnight prior to dosing but had free access to water. The compounds were administered in aqueous suspension, by gavage, in a column of 1.7 ml. per 50 g. of rat [corresponds to the hydration volume used by Winter, et al., Proc. Soc. Exp. Biol. and Med. 111, 544-547 (1962)].
The phlogistic agent used was carrageenin prepared as a sterile 1% suspension in 0.9% aqueous sodium chloride for routine testing. A volume of 0.05 ml. was injected through a 26 gauge needle into the plantar tissue of the right hind paw. Measurements were made 5 hours after drug administration (4 hours after carrageenin challenge).
Volumes of both the normal and carrageenin inflamed feet were determined. The difference between the two measurements is considered to be the increased edema due to the carrageenin administration. Results are expressed as a C/T efficacy ratio (edema of control animals/edema of treated animals) and a C/T ratio of greater than 1.41 is considered active.

[7] = tested on: ultraviolet induced erythema; assay: Ultraviolet induced erythema in guinea pigs; type: in vivo, Albino guinea pigs; details: maximum score 3.0
Method: Another method of determining a drug effect on conditions which result in inflammation is by measuring the effect on ultraviolet induced erythema in guinea pigs. Albino guinea pigs were depilitated on their flanks, the evening before testing, with a standard mixture of barium sulfide and gum acacia. On the morning of the test, groups of 4 guinea pigs were dosed by gavage one hour prior (-1 hour) to ultraviolet exposure. At 0 hour they were restrained in a plastic container which allows exposure of 3 circular spots. They were then exposed to ultraviolet irradiation from a "Hanovia" Kromayer lamp, model 10, for 60 seconds. At one and four hours, the degree of erythema for each of the three sites was assessed according to the following scoring system: 0=no erythema, 0.5=incomplete circle or faint erythema and 1.0=[…] circle of distinct erythema. Thus, the maximum score for each animal was 3.0.

[8] = 62.5 mg./kg. by gavage 1 hour prior to UV, 4 animals
[9] = 125 mg./kg. by gavage 1 hour prior to UV, 4 animals
[10] = 250 mg./kg. by gavage 1 hour prior to UV, 8 animals

Row | SMILES | activity as indicated (aggregation of thromocytes) [1] | activity as indicated (antiphlogistic) [2] | % Inhibition of Swelling (primary lesion) ([3]; 14th day post challenge, injected paw) [%] | % Inhibition of Control grade (secondary lesion) ([3]; 14th day, grade scale 0 to 24) [%] | % Inhibition (period of respiratory distress) ([4]; 1 mg./kg. oral) [%] | % Inhibition (period of respiratory distress) ([4]; 10 mg./kg. oral) [%] | % Inhibition (period of respiratory distress) ([4]; 25 mg./kg. oral) [%] | % Inhibition (period of respiratory distress) ([4]; 50 mg./kg. oral) [%] | % Inhibition (platelet aggregation) ([5]; 10 mg./kg. oral) [%] | % Inhibition (platelet aggregation) ([5]; 25 mg./kg. oral) [%] | % Inhibition (platelet aggregation) ([5]; 50 mg./kg. oral) [%] | C/T Edema Ratio [6] | Score (avg.) 1 hour [7, 8] | Score (avg.) 4 hour [7, 8] | Score (avg.) 1 hour [7, 9] | Score (avg.) 4 hour [7, 9] | Score (avg.) 1 hour [7, 10] | Score (avg.) 4 hour [7, 10]
1 | O=C1CCC(c2ccc(-c3ccccc3)cc2)O1 (stereo not drawn) [5-(4-biphenylyl)-2-hydro-2-(3H)-furanone] | inhibitory | antiphlogistic |  |  |  |  |  |  |  |  |  |  |  |  |  |  |  | 
2 | O=C(O)CCC(O)c1ccc(-c2ccccc2)cc1 (stereo not drawn) [γ-Hydroxy-4-biphenylbutyric acid] |  |  | 51 | 30 | 46 | 51 | 66 | 63 | 25 | 25 | 19 | 2.0 | 0 | 2.1 | 0.4 | 2.9 | 0 | 2.0
